In one experiment the test system is PANC-1 cells. In words: CaspaseGlo 3/7 apoptosis assay, PANC-1. It is filed as cell-based, human. To be noted: 72 h. On the procedure: (§1) 6 Effect of small-molecule modulators on gemcitabine-induced apoptosis and tumor growth of PDAC cells. […] After 2 h, gemcitabine (GEM) was added at increasing concentrations (10 and 25 nM) or not (−) for another incubation of 72 h. Subsequently, the luminescence-based caspase3/7 assay was performed. The activity of caspase 3/7 in treated cells was normalized to the activity measured in untreated cells (dark gray bar), which was set to 1 (mean SD, n = 6 for PANC-1 and n = 4 for PaTu8988T; *: p ≤ 0.05, **: p ≤ 0.01, ***: p ≤ 0.001, using the student t-test). […] After 24 h, gemcitabine (GEM, 1 μM) was added (+) or not (−) for another incubation of 48 h. Subsequently, the apoptotic cell fraction was quantified in % by flow cytometry using FITC-labeled Annexin V (AV) and propidium iodide (PI) staining (in B: mean ± SD, n = 6 for PANC-1 and n = 5 for PaTu8988T; **: p ≤ 0.01, ***: p ≤ 0.001, ****: p ≤ 0.0001, using the student t-test). […] Viable cells are AV/PI double-negative (AV–/PI–, lower left quadrant, Q4), early apoptotic cells are AV single-positive (AV+/PI– upper left quadrant, Q1), late apoptotic cells are AV/PI double-positive (AV+/PI+, upper right quadrant, Q2), and necrotic cells are PI single-positive (AV–/PI+, lower right quadrant, Q3). The sum of early and late apoptotic cell numbers ([…] in %) is indicated in red. D-G: The workflow of the PDAC xenograft experiments in mice is depicted in D. PANC-1 cells (2 × 10^6 cells/mouse) were subcutaneously (s.c.) injected in the right flank of female athymic nude mice. Small tumor nodules appeared 6 days post-engraftment. […] Tumor volumes were measured every second day using a digital caliper. […] At the end of the 2 weeks, mice were sacrificed and tumors were dissected (F).
(§2) For quantification of apoptosis using the CaspaseGlo 3/7 assay (Promega), PANC-1 and PaTu8988T cells were seeded in triplicates in white 96-well plate (5 × 10^3 cells/well) and cultured in the absence or presence of compounds. After 2 h, as soon as the cells had settled, gemcitabine was added or not, and cells were incubated for another 72 h. Subsequently, the caspase3/7 activity was measured using the luminescence-based CaspaseGLO-3/7 assay (Promega). To this end, the CaspaseGlo reagent was subsequently added to the cells at a 1:1 ratio and incubated at room temperature and under agitation for 30 min protected from light. The luminescence measurements were carried out using a microplate reader (Mithras LB 940, Berthold).

In experiment [1] the test system is PaTu8988T cells. In words: CaspaseGlo 3/7 apoptosis assay, PaTu8988T. It is filed as cell-based, human. The note with it: 72 h. On the procedure:
as §1, §2

The next experiment has as its target T1, FLAG-tagged PRMT1 (Rattus norvegicus, UniProt Q63009).
T1 construct: Full-length FLAG-tagged PRMT protein; made in house; host or cells: Sf9 insect cells (baculovirus)
In words: Fluorescence-based in vitro PRMT assay (F-PRMT assay), PRMT1. It is filed as biochemical.

In another experiment the target is T2, FLAG-tagged PRMT3 (Homo sapiens, UniProt O60678).
T2 construct: The complete ORFs of human PRMT3 and PRMT6 were inserted; made in house; host or cells: Sf9 insect cells (baculovirus)
In words: Fluorescence-based in vitro PRMT assay (F-PRMT assay), PRMT3. Format: biochemical. To be noted: Table S3; 100 µM compound, vs solvent control = 100%, n≥3. The text has this: To evaluate the effects of the selected candidate molecules on the catalytic activity of type I enzymes, we employed a quantitative fluorescence-based in vitro PRMT activity (F-PRMT) assay using recombinant FLAG-tagged PRMT proteins expressed and affinity-purified from baculovirus-infected Sf9 cells (SI Figure S1, SI Figure S2A).
Human cell lines (PaTu8988T, PANC-1) were obtained from ATCC (American Type Culture Collection) and cultured in DMEM supplemented with 10% fetal calf serum (FCS, Gibco/BRL), 1% penicillin/streptomycin at 37 °C and 5% CO2. […] For PRMT1 inhibition, cells were treated with type I PRMT inhibitor MS023 hydrochloride (Biomol). For induction of genotoxic stress, cells were treated with gemcitabine (LC Laboratories). […] The following plasmids were used: pFASTBAC-FLAG-rat PRMT1, pFASTBAC-FLAG-mouse PRMT4, and pGEX-GAR. The complete ORFs of human PRMT3 and PRMT6 were inserted into the pFASTBAC HT-3xFLAG B vector via BamHI/HindIII and BamHI/XhoI sites, respectively.
For PRMT protein expression in insect cells, recombinant baculovirus (bacmid) was generated using the Bac-to-Bac baculovirus system (Invitrogen). Sf9 cells were transfected with bacmid DNA using X-tremeGENE HP DNA transfection reagent (Sigma-Aldrich) according to the manufacturer's instructions. After 3–5 days, supernatants were collected, filtered, and used to infect Sf9 cells to amplify the virus. After 2 rounds of virus amplification and estimation of the final P3 virus titer, the P3 virus (2–5 μL/10^6 cells) was applied for large-scale infection of 200 × 10^6 Sf9 cells in suspension culture at a density of 1 × 10^6 cells/mL. Cells were harvested 5–6 days post-infection by centrifugation at 500 g for 5 min at room temperature. Protein purification from baculovirus-infected Sf9 cells was performed as previously described. , Cells were lysed in BC buffer (20 mM HEPES pH 7.9, 250 mM NaCl, 10% (v/v) glycerin, 0.4 mM EDTA, 1 mM DTT) containing a protease inhibitor cocktail (Roche) by 3 freeze-thaw cycles. After centrifugation at 11,000 rpm (Sorval SS34 rotor) and 4 °C for 1 h, the supernatant (whole cell protein extract) was incubated with anti-FLAG M2 Affinity Gel (Cytiva) at 4 °C and under agitation for 4 h. Subsequently, beads were washed in BC buffer containing various NaCl concentrations (once in BC with 1 M NaCl, twice in BC with 500 mM NaCl, twice in BC with 250 mM NaCl and twice in BC with 100 mM NaCl). FLAG-tagged proteins were either maintained bead-bound as a 50% (v/v) slurry in BC buffer with 100 mM NaCl and stored at −80 °C or were eluted in the appropriate elution buffer (depending on the subsequent assay) containing 0.25 mg/mL 3xFLAG peptides (Sigma-Aldrich) at 4 °C for 30–45 min. To remove the FLAG-peptides from the eluate, dialysis was performed in elution buffer containing 10% (v/v) glycerol at 4 °C for 4–6 h using Slide-A-Lyzer Dialysis Devices (Thermo Fisher Scientific) according to the manufacturer’s recommendations.
In the first step, the fluorogenic substrate Nα-Benzoyl-L-arginine-7-amido-4-methylcoumarin (Bz-Arg-AMC, Sigma-Aldrich) undergoes methylation by PRMTs upon the addition of the cofactor SAM. In the second reaction step, trypsin cleaves the nonmethylated substrate, leading to the generation of the 7-amino-4-methylcoumarin product, which can be quantified by subsequent fluorescence measurement (excitation: 355 nm, emission: 460 nm). The first reaction was conducted with bead-bound PRMTs at a total volume of 100 μL. Each condition was performed as a technical triplicate to determine the mean and the standard deviation. […] For the negative controls, SAM was substituted with assay buffer. The incubation was continued at 37 °C and under agitation (1,000 rpm) for a duration of 2 h.

The target of a further experiment is T3, FLAG-tagged PRMT4 (Mus musculus, UniProt Q9WVG6).
T3 construct: Full-length FLAG-tagged PRMT protein; made in house; host or cells: Sf9 insect cells (baculovirus)
T3 sequence (Q9WVG6 1-608): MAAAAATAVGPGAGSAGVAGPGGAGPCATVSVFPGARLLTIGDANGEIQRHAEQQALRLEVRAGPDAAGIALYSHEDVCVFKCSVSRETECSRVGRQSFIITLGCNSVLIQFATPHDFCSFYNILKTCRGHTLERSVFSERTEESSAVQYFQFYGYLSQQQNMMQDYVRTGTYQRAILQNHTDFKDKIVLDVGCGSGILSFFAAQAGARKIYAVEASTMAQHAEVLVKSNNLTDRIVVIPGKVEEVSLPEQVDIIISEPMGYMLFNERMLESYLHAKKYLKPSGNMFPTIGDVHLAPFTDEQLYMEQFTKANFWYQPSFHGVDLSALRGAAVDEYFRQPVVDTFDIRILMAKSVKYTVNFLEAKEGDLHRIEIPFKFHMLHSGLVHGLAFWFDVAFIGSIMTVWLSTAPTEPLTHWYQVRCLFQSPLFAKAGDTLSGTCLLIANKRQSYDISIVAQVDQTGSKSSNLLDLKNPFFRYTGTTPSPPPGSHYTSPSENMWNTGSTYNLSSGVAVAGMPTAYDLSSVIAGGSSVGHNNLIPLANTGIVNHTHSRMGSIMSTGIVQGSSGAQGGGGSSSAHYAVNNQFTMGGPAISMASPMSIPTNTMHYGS
In words: Fluorescence-based in vitro PRMT assay (F-PRMT assay), PRMT4. Format: biochemical. The note with it: Table S3; 100 µM compound, vs solvent control = 100%, n≥3. The procedure, abridged: (§3)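 Baculovirus/Sf9-expressed FLAG-PRMTs (human PRMT3, PRMT6; mouse PRMT4), anti-FLAG purified and used bead-bound, methylated Bz-Arg-AMC with SAM for 2 h at 37 °C, 1,000 rpm. Technical triplicates; no-SAM negative controls.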

For another experiment, the target named is T4, FLAG-tagged PRMT6 (Homo sapiens, UniProt Q96LA8).
T4 construct: The complete ORFs of human PRMT3 and PRMT6 were inserted; made in house; host or cells: Sf9 insect cells (baculovirus)
In words: Fluorescence-based in vitro PRMT assay (F-PRMT assay), PRMT6. It is filed as biochemical. To be noted: Table S3; 100 µM compound, vs solvent control = 100%, n≥3. The procedure, abridged:
as §3

For experiment [2], the system named is PaTu8988T cells. In words: Annexin V/PI flow cytometry apoptosis assay, PaTu8988T. To be noted: Homo sapiens, PaTu 8988t, 48 h; read-out: Q4, viable cells (AV–/PI–). Format: cell-based, human. Here is the method: 6 Effect of small-molecule modulators on gemcitabine-induced apoptosis and tumor growth of PDAC cells. […] Subsequently, the luminescence-based caspase3/7 assay was performed. The activity of caspase 3/7 in treated cells was normalized to the activity measured in untreated cells (dark gray bar), which was set to 1 (mean SD, n = 6 for PANC-1 and n = 4 for PaTu8988T; *: p ≤ 0.05, **: p ≤ 0.01, ***: p ≤ 0.001, using the student t-test). […] After 24 h, gemcitabine (GEM, 1 μM) was added (+) or not (−) for another incubation of 48 h. Subsequently, the apoptotic cell fraction was quantified in % by flow cytometry using FITC-labeled Annexin V (AV) and propidium iodide (PI) staining (in B: mean ± SD, n = 6 for PANC-1 and n = 5 for PaTu8988T; **: p ≤ 0.01, ***: p ≤ 0.001, ****: p ≤ 0.0001, using the student t-test). […] Viable cells are AV/PI double-negative (AV–/PI–, lower left quadrant, Q4), early apoptotic cells are AV single-positive (AV+/PI– upper left quadrant, Q1), late apoptotic cells are AV/PI double-positive (AV+/PI+, upper right quadrant, Q2), and necrotic cells are PI single-positive (AV–/PI+, lower right quadrant, Q3). The sum of early and late apoptotic cell numbers (Q2+Q3 in %) is indicated in red. D-G: The workflow of the PDAC xenograft experiments in mice is depicted in D. PANC-1 cells (2 × 10^6 cells/mouse) were subcutaneously (s.c.) injected in the right flank of female athymic nude mice. […] Tumor volumes were measured every second day using a digital caliper. […] At the end of the 2 weeks, mice were sacrificed and tumors were dissected (F).
For quantification of apoptosis by Fluorescence Activated Cell Sorting (FACS), PANC-1 and PaTu8988T cells were seeded in 6-well plates (250 × 10^3 cells/well) and cultured in the absence or presence of compounds. After 24 h, gemcitabine was added or not for another 48 h. After harvesting and washing, unfixed cells (0.5–1 × 10^6) were incubated with FITC-labeled Annexin V and/or PI (BD Pharmingen) according to the manufacturer’s instructions. All samples were analyzed using a BD FACSCalibur flow cytometer (BD Bioscience). Data were acquired using the CellQuestPro program and analyzed with the FlowJo (FlowJo LLC) software.
After 24 hours, gemcitabine (GEM, 1 µM) was added (+) or not
(-) for another incubation of 48 hours. Subsequently, the apoptotic cell fraction was assessed by flow cytometry using FITC-labeled Annexin V (AV) and propidium iodide (PI) staining and quantified in % (mean ± SD, n=3-4; ns: not significant, *: p ≤0.05, **: p ≤0.01, ***: p ≤0.001, ****: p ≤0.0001, using the student t-test).

A further experiment has as its system PANC-1 xenografts. In words: PDAC xenograft mouse model, tumor growth. The note with it: female athymic nude mice, intraperitoneal, 2 weeks; 150 mg/kg TR-07 daily, 10 mg/kg gemcitabine every second day; n = 5. It is filed as in vivo.
[3] abbreviates: compound 10 μM, after 2 h gemcitabine 10 and 25 nM.
Where [4] appears, read: TR-07 10 μM or gemcitabine 10 and 25 nM.

T1 sequence (Q63009 whole entry): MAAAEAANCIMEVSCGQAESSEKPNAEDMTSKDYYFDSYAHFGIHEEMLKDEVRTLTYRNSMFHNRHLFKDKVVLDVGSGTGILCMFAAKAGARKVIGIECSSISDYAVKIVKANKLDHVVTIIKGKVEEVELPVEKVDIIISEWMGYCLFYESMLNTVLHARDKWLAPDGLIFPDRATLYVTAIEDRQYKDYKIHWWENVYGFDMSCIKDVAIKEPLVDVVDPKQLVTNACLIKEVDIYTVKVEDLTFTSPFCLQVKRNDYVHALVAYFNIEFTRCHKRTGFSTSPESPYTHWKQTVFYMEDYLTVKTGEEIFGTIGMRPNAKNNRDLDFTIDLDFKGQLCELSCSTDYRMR
T2 sequence (O60678 whole entry): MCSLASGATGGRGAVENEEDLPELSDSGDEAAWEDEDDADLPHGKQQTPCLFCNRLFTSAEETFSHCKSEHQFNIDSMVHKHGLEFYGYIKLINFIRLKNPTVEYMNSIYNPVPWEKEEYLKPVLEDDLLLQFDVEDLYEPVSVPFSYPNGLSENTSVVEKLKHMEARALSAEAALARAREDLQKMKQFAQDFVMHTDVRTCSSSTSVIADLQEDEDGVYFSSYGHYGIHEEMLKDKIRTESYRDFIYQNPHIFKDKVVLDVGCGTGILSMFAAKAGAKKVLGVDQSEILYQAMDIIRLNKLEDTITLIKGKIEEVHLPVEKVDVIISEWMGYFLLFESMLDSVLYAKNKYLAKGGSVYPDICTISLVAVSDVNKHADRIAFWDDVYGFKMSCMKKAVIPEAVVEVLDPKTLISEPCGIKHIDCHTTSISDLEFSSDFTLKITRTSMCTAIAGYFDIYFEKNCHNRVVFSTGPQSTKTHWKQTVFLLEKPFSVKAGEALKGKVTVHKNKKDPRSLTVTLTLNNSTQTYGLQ
T4 sequence (Q96LA8 whole entry): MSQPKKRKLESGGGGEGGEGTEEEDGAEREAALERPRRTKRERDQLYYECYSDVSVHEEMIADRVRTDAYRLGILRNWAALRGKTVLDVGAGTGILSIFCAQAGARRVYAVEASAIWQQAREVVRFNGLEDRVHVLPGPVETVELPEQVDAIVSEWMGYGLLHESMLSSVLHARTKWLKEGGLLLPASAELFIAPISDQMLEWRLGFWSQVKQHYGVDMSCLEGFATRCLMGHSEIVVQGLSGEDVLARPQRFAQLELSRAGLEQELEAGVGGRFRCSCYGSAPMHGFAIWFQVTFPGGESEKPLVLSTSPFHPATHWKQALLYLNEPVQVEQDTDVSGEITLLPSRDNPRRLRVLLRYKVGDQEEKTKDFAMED

For the molecule `CC(C)Oc1ccc(-c2c[nH]cc2CN(C)CCN)cc1` [MS023, reference compound], the “gemcitabine-induced apoptosis, caspase 3/7 activity, co-treatment” value with PANC-1 cells (setting [3]) and with PaTu8988T cells [1] (setting [3]) was “diminished” in each case.
As to `O=C1NC(=O)c2ccccc2/C1=C/Nc1ccccc1` [TR-014, (Z)-4-[(Phenylamino)methylene]isoquinoline-1,3(2H,4H)-dione], the “effect on PRMT1 activity (in words)” value on FLAG-tagged PRMT1 (100 μM compound) was “no significant effect”. Besides, at FLAG-tagged PRMT1 (Table S3, 100 µM compound, vs solvent control = 100%, n≥3), the “Experimental result (PRMT1)” value is on record as “n.e. (did not significantly affect the catalytic activity (less than ±6% change or not significant p-value), are marked with n.e. (no effect))”. The “Experimental result (PRMT3)” value on FLAG-tagged PRMT3 is on record as “n.e. (did not significantly affect the catalytic activity (less than ±6% change or not significant p-value), are marked with n.e. (no effect))”. Moreover, the “Experimental result (PRMT4)” value at FLAG-tagged PRMT4 is “n.e. (did not significantly affect the catalytic activity (less than ±6% change or not significant p-value), are marked with n.e. (no effect))”. In addition, the “Experimental result (PRMT6)” value on FLAG-tagged PRMT6 is on record as “n.e. (did not significantly affect the catalytic activity (less than ±6% change or not significant p-value), are marked with n.e. (no effect))”.
In the case of `Nc1ccn([C@@H]2O[C@H](CO)[C@@H](O)C2(F)F)c(=O)n1` [gemcitabine, reference compound], the “apoptosis, caspase 3/7 activity, single agent” value with PANC-1 cells (setting [4]) and in the experiment with PaTu8988T cells [1] (setting [4]) was “underwent apoptosis in a gemcitabine concentration-dependent manner” each time. Also, the viability at 10 µM in the experiment with PaTu8988T cells [2] was 78.6%. In the experiment on PANC-1 xenografts, the “tumor growth of PANC-1 xenografts” value is “significantly reduced the tumor growth compared to the control mice”.

These data come from article PMC13576449, “Small-Molecule Activators of PRMT1: Discovery, SAR Analyses, and Proapoptotic Effects in Pancreatic Cancer Cells” (Journal of Medicinal Chemistry, 2026).
